Entries after “also recorded” stand apart in the source; their conditions may differ. Like-named read-outs stand apart in the source and are kept apart here.
What was measured:
[1] = tested on: S. aureus ATCC 6538 biofilms; test: CDC biofilm reactor coupons, 24 h antibiotic treatment, bioburden by serial dilution plating; assay type: cell-based; details: for synergy of the companion antibiotic with metronidazole against biofilms: 24 h treatment; for eradication of biofilms: concentrations over 60,000 X the MIC, 6,000 X the nephrotoxic and ototoxic thresholds, 25-50 X the cytotoxic limit; for anti-biofilm efficacy of hypoxia-activated prodrug compared with antibiotic controls: 1 mM compound with 1 mM nafcillin or 1 mM gentamicin, 24 h
Description: For determining the broad-spectrum utility of metronidazole, respective bacterial species were grown into stationary biofilms using a 2- or 3-day species-specific growth protocol in a CDC biofilm reactor on standard 0.5 in polycarbonate coupons. Each reactor holds up to 24 coupons/samples with adherent biofilms. Bacterial bioburden, represented as colony forming units (CFUs), from five reactor samples/coupons (n=5) were quantified by first dispersing the bacterial biofilms in 2 ml of PBS by standardized vortex-sonication technique and serial-dilution plating. Importantly, this quantification technique provides bioburden data with logarithmic sensitivity. […] The gray shaded regions represent standard deviations.
(§1) Three groups of 5 coupons/samples (n=5) were placed into 2 ml treatments either containing 0.5-1 mg/ml of gentamicin, metronidazole, or combinations thereof (in CAMHB) and incubated for 24 h at 37° C. Importantly, the total antibiotic concentration (mg/ml) was fixed for each sample to enable assessment of compound synergy.
After the 24 h treatment, the bacteria adhered to coupons were quantified by rinsing the samples very gently in excess PBS followed by vortexing and sonicating to disperse the biofilm in 2 ml PBS and subsequent serial-dilution plating. The bioburden of the adhered bacteria is represented by the blue bars in FIG. 1. […] Broth bioburden is represented by the red bars in FIG. 1.
Twelve hypoxia activated prodrugs from three categories were tested: nitroimidazoles (same class as metronidazole), nitrofurans, and anti-tumor agents.
To test each compound, the contents of an entire CDC-biofilm reactor (24 coupons/biofilm samples) were used (see FIG. 2 and FIG. 3). […] Using the methods described above, 4 reactor samples/coupons served as reactor controls. The remaining 20 samples/coupons were split into 4 treatment groups of 5 samples each (n=5).
For testing against S. aureus biofilms, the compounds were prepared at a concentration of 1 mM in CAMHB; coupons were treated in 2 ml for 24 h. Compounds were intentionally prepared in units of molarity rather than the more common weight/volume ratios of clinicians.
This choice was made for two reasons.
Two of the treatment groups were the same for each test: one in 1 mM nafcillin (a β-lactam antibiotic) and a second in 1 mM gentamicin. […] For comparison for most compounds 1 mM ranges from ˜0.15-0.5 mg/ml, 1 or 2 Log 2 dilutions below tests in FIG. 1. […] The other compounds were tested at the same concentrations.
Quantification of the post-treatment residual bioburden was performed by dispersing biofilm bacteria into the 2 ml treatments with its constituent bacteria by vortexing, and sonicating. […] The pelleted bacteria were resuspended and measured by the serial dilution plating technique. Thus, the values presented in FIGS. 2, 3 and 4 represent the cumulative change in bioburden from the surface-attached biofilms and bacteria in the treatments.

[2] = tested on: biofilm-contaminated fixation plates; test: Sheep model of biofilm-related orthopedic (musculoskeletal) infection; assay type: in vivo
Description: Use of the Pouch device in a sheep model of biofilm-related orthopedic infection. The Pouch device and two clinical standards of care (IV-vancomycin, and gentamicin-loaded Stimulan® beads) were tested in a sheep model of biofilm-related orthoepic infection. Briefly, the proximal medial aspect of the right tibia is subjected to a blast from an air cannon to simulate traumatic soft tissue damage. In a surgical procedure, the periosteum is stripped, and two biofilm-contaminated fixation plates are situated above osteotomized fractures. At necropsy, one of the fixation plates and the surrounding tissue serve for microbiological analysis whereas the plate and tissues of the second site are used for histological analysis. Four groups of sheep (n=5/group) were used in testing. The first group served as a positive control of infection. The Pouch device was tested in one group. The Pouch device was placed during the surgery and refilled daily for 10 days with 480 mg of gentamicin sulfate, 1 g of vancomycin, and 36 mg of rifampin. Ten days after surgery the Pouch device was removed, and the sheep monitored for an additional 11 days; endpoint was 21 days for the groups. For comparison, clinical standards of care were tested in the remaining two groups: IV vancomycin, and Gentamicin-loaded Stimulan® beads. […]

S. epidermidis = test: Minimum inhibitory concentration (MIC) assay, planktonic bacteria; assay type: cell-based, Staphylococcus epidermidis; details: for MIC: Staphylococcus epidermidis, for 1:1 combinations MIC is the sum of both compounds
Description: as §1
(§2) For comparison to these biofilm tests with adjunctive metronidazole, the MIC was determined for each organism and each compound tested.

[3] = tested on: P. aeruginosa ATCC 27853 biofilms; test: CDC biofilm reactor coupons, 24 h antibiotic treatment, bioburden by serial dilution plating; assay type: cell-based; details: for anti-biofilm efficacy of hypoxia-activated prodrug compared with antibiotic controls: 1 mM compound with cefepime or 0.1 mM gentamicin, 24 h
Description: Twelve hypoxia activated prodrugs from three categories were tested: nitroimidazoles (same class as metronidazole), nitrofurans, and anti-tumor agents. For the screening, S. aureus ATCC 6538 was used with the best performing compounds subsequently tested against P. aeruginosa ATCC 27853; these pathogens can then be used as inocula for infection development in the animal work.
To test each compound, the contents of an entire CDC-biofilm reactor (24 coupons/biofilm samples) were used (see FIG. 2 and FIG. 3). These experiments were designed to have multiple internal controls to enable cross-data comparisons (see FIG. 4). Using the methods described above, 4 reactor samples/coupons served as reactor controls. The remaining 20 samples/coupons were split into 4 treatment groups of 5 samples each (n=5).
Two of the treatment groups were the same for each test: one in 1 mM nafcillin (a β-lactam antibiotic) and a second in 1 mM gentamicin. Likewise, the second two treatment groups had either 1 mM nafcillin or 1 mM gentamicin both with the addition of 1 mM of the compound tested. For comparison for most compounds 1 mM ranges from ˜0.15-0.5 mg/ml, 1 or 2 Log 2 dilutions below tests in FIG. 1. For testing of P. aeruginosa biofilms (FIG. 3), the β-lactam cefepime was substituted for nafcillin due to resistance and the gentamicin concentration was reduced from 1 to 0.1 mM because of excessive kill compared with S. aureus biofilms. The other compounds were tested at the same concentrations.
Quantification of the post-treatment residual bioburden was performed by dispersing biofilm bacteria into the 2 ml treatments with its constituent bacteria by vortexing, and sonicating. The antibiotic was removed from a representative aliquot (1 ml) sample, alternating steps of centrifugally pelleting the bacteria, removing 90% of the solution, replacing 90% of the solution and repeating 2 additional times thereby decreasing the antibiotic in solution below the MIC values. The pelleted bacteria were resuspended and measured by the serial dilution plating technique. Thus, the values presented in FIGS. 2, 3 and 4 represent the cumulative change in bioburden from the surface-attached biofilms and bacteria in the treatments.

S. aureus = test: Minimum inhibitory concentration (MIC) assay, planktonic bacteria; assay type: cell-based
Text: Shortcomings of clinical antibiotic susceptibility assays. The antibiotic-susceptibility assays used to guide clinical treatment and prophylaxis rely on actively-dividing planktonic bacteria (Williams, D. L. & Costerton, J. W. J Biomed Mat Res B 100, 1163-1169 (2011)). Among the assays performed by clinical reference laboratories are the minimum inhibitory concentration (MIC), and disk diffusion (Kirby-Bauer) assays. The ubiquity of these assays is owed to the fact that they are high throughput, relatively quick to perform, repeatable, and have short turnaround times. They inform clinicians regarding which antibiotic are applicable for a given infection from a simple site swab, blood, or aspirate sample. […] Thus, when a compound, such as metronidazole performs poorly in an MIC assay, a physician would be thoroughly dissuaded from using it. Likewise, in drug-development, a high MIC value would exclude potentially useful anti-biofilm agents from candidate drug libraries. […] Using orthodox clinical methodology, there would be no basis to administer metronidazole in the treatment of a S. aureus-related infections, despite its exceptional efficacy against bacterial biofilms of the same isolates. The MIC assay fails to provide any information about susceptibility profiles of bacteria that reside in the biofilm phenotype.
as §2

A. baumannii = test: as above; assay type: cell-based; details: for 1:1 combinations MIC is the sum of both compounds
Description: as §2

MRSA USA300 = test: as above; assay type: cell-based; details: for 1:1 combinations MIC is the sum of both compounds
Description: as §2

P. aeruginosa = test: as above; assay type: cell-based; details: for 1:1 combinations MIC is the sum of both compounds
Description: as §2

E. coli = test: as above; assay type: cell-based, Escherichia coli; details: for 1:1 combinations MIC is the sum of both compounds
Description: as §2

K. pneumoniae = test: as above; assay type: cell-based, Klebsiella pneumoniae; details: for 1:1 combinations MIC is the sum of both compounds
Description: as §2

With `CCOc1ccc2ccccc2c1C(=O)N[C@@H]1C(=O)N2[C@@H]1SC(C)(C)[C@@H]2C(=O)O` [nafcillin] the “synergy of the companion antibiotic with metronidazole against biofilms” value [1] was “did not display synergy nor antagonism; also recorded: least synergistic”.
`CN[C@H](CC(C)C)C(=O)N[C@H]1C(=O)N[C@@H](CC(N)=O)C(=O)N[C@H]2C(=O)N[C@H]3C(=O)N[C@H](C(=O)N[C@H](C(=O)O)c4cc(O)cc(O)c4-c4cc3ccc4O)[C@H](O)c3ccc(c(Cl)c3)Oc3cc2cc(c3O[C@@H]2O[C@H](CO)[C@@H](O)[C@H](O)[C@H]2O[C@H]2C[C@](C)(N)[C@H](O)[C@H](C)O2)Oc2ccc(cc2Cl)[C@H]1O` [vancomycin] was tested, and the eradication of biofilms [1] was “failed to eradicate”, the “bioburden levels compared to the positive control” value ([2]; 21 days) was “not statistically significantly different” and the “reduction in bacterial bioburden from the initial inocula” value ([2]; 21 days after inoculation, treatment for 10 days, n=5 sheep/group) was 2.5 log10 units.
With `NC(=O)N/N=C/c1ccc([N+](=O)[O-])o1` [nitrofurazone] the “anti-biofilm efficacy of hypoxia-activated prodrug compared with antibiotic controls” value [1] was “showed benchtop anti-biofilm utility”.
With `C[C@H]1COc2c(N3CCN(C)CC3)c(F)cc3c(=O)c(C(=O)O)cn1c23` [Levofloxacin, levofloxacin] the MIC (S. epidermidis; aerobic, read-out: Aerobic MIC) was 0.125 µg/mL and the MIC (S. epidermidis; anaerobic, read-out: Anaerobic MIC) was 0.125 µg/mL.
`O=C1OC(CN2CCOCC2)CN1/N=C/c1ccc([N+](=O)[O-])o1` (stereo not drawn) [furaltadone] was tested, and the “anti-biofilm efficacy of hypoxia-activated prodrug compared with antibiotic controls” value [1] was “remarkable efficacy”, the “anti-biofilm efficacy with β-lactam antibiotics” value ([1]; paired with β-lactam (nafcillin; cefepime for P. aeruginosa)) was “considerable efficacy” and the “anti-biofilm efficacy of hypoxia-activated prodrug compared with antibiotic controls” value [3] was “remarkable efficacy”.
In the case of `CO/N=C(\C(=O)N[C@@H]1C(=O)N2C(C(=O)[O-])=C(C[N+]3(C)CCCC3)CS[C@H]12)c1csc(N)n1` [cefepime], the “synergy of the companion antibiotic with hypoxia-activated prodrugs” value ([3]; Gram-negative organisms) is reported as “least synergistic”.
With gentamicin the “Aerobic MIC” value (S. aureus; aerobic, for 1:1 combinations MIC is the sum of both compounds) was 1 µg/mL, the “Anaerobic MIC” value (S. aureus; anaerobic, for 1:1 combinations MIC is the sum of both compounds) was 8 µg/mL and the “MIC against S. aureus” value (S. aureus; isolate used in biofilm tests) was 1 µg/mL. For the same compound, the “Aerobic MIC” value (A. baumannii) was 2 µg/mL, the “Aerobic MIC” value (MRSA USA300; aerobic) was 2 µg/mL and the “Anaerobic MIC” value (MRSA USA300; anaerobic) was 16 µg/mL. The “Aerobic MIC” value (P. aeruginosa; aerobic) was 2 µg/mL, the “Anaerobic MIC” value (P. aeruginosa; anaerobic) was 2 µg/mL and the “resistance of the isolate” value (S. epidermidis; isolate used in FIG. 1) was “complete resistance”. The “Aerobic MIC” value (E. coli; aerobic) was 0.5 µg/mL, the “Anaerobic MIC” value (E. coli; anaerobic) was 4 µg/mL and the “Aerobic MIC” value (K. pneumoniae; aerobic) was 2 µg/mL. For the same compound, the “Anaerobic MIC” value (K. pneumoniae; anaerobic) was 4 µg/mL, the “synergy of the companion antibiotic with metronidazole against biofilms” value [1] was “synergistic; also recorded: considerably strengthened; also recorded: strong synergy” and the eradication of biofilms [1] was “failed to eradicate”.
In the case of `Cn1c(COP(=O)(NCCBr)NCCBr)cnc1[N+](=O)[O-]` [Evofosfamide], the “anti-biofilm efficacy of hypoxia-activated prodrug compared with antibiotic controls” value [1] is reported as “significant activity” and the “anti-biofilm efficacy of hypoxia-activated prodrug compared with antibiotic controls” value [3] is reported as “significant activity”.
With `Nc1n[n+]([O-])c2ccccc2[n+]1[O-]` [Tirapazamine] the “anti-biofilm efficacy of hypoxia-activated prodrug compared with antibiotic controls” value [1] was “significant activity” and the “anti-biofilm efficacy of hypoxia-activated prodrug compared with antibiotic controls” value [3] was “significant activity”.
